# Data: paper PMC6862250, “Lipophilicity Determination of Quaternary (Fluoro)Quinolones by Chromatographic and Theoretical Approaches” (International Journal of Molecular Sciences, 2019)
# Tests used:
# Type in all cases: physicochemical
# [1] = RP-TLC lipophilicity, silica gel C18, methanol-water; conditions: for C 0: RP-TLC silica gel C18, C0 = −RM^0/b; for PC1: RP-TLC silica gel C18, first principal component of RM values, contains 86.92% of information; for mRM: RP-TLC silica gel C18, mean value of RM; for R M ^0: RP-TLC silica gel C18, methanol-water 40 to 70% (v/v), intercept of Soczewiński–Wachtmeister equation; for b: RP-TLC silica gel C18, slope of Soczewiński–Wachtmeister equation
# Method: (§1) The ready-to-use TLC glass plates covered by octadecyl(C18)- and octyl(C8)-modified TLC silica layers were purchased from Merck (Darmstadt, Germany). Stock solutions (5 µL) of the analytes were spotted manually on the plates with the use of a micropipette from Brand (Wertheim, Germany). The mobile phases were prepared by mixing appropriate volumes of pure organic solvents and water (in step gradient by 10% (v/v)), in the following proportions: (a) methanol–water ranging from 30 to 70% (v/v), in the case of C8-bonded silica gel stationary phase; and (b) methanol–water ranging from 40 to 70% (v/v), in the case of C18-bonded silica gel stationary phase.
# (§2) Before analysis, the chromatographic chamber (Twin Trough Chambers from CAMAG Philadelphia, USA) was saturated for 20 min. All TLC experiments were performed at room temperature (22 ± 2 °C). Chromatograms were developed using the ascending technique to a distance of 8 cm. The investigated substances were visualized under UV light at λ = 366 nm by CAMAG UV Lamp 4 and the Viewing Box 4 (Philadelphia, USA). […] The obtained retardation factors (RF) were collected in the Supplementary data sheets. The retention parameter, RM, was calculated for each compound according to the Bate-Smith and Westall formula: (7) RM=log(1/RF−1) and listed in Table S2. Next, the Soczewiński–Wachtmeister’s equation: RM = RM^0 + bC(8) was used in order to determine the basic lipophilic RP-TLC parameter RM^0 as well as commonly used hydrophobic constants m. Soczewiński–Wachtmeister’s equation presented a linear relationship between concentration of the organic solvent in mobile phase (C) and RM value. Moreover, mean value of RM was used for lipophilicity assessments.
# (§3) Furthermore, C0 RP-TLC lipophilicity parameter, introduced by Bieganowska, has been calculated according to the formula:(9) C0=−RM^0/b.
# (§4) The C0 parameter corresponds to the parameter φ0, previously proposed for the HPLC. This parameter relates to the concentration of the organic component in the mobile phase for which the distribution of the analyzed substance between the mobile and stationary phase is equal (1:1).
# (§5) Also, the principal component analysis (PCA) was applied in order to extract information regarding the lipophilicity of solutes and formulate them as the first principal component (PC1). Calculation data matrixes included RM values of solutes for each modifier concentration in the mobile phase.
# [2] = RP-TLC lipophilicity, silica gel C8, methanol-water; conditions: for C 0: RP-TLC silica gel C8, C0 = −RM^0/b; for PC1: RP-TLC silica gel C8, first principal component of RM values, contains 83.57% of information; for mRM: RP-TLC silica gel C8, mean value of RM; for R M ^0: RP-TLC silica gel C8, methanol-water 30 to 70% (v/v), intercept of Soczewiński–Wachtmeister equation; for b: RP-TLC silica gel C8, slope of Soczewiński–Wachtmeister equation
# Method: as §1, §2, §3, §4, §5
# [3] = MEKC lipophilicity (SDS micelles, pH 7.4); conditions: 50 mM SDS, HEPES/TRIS buffer pH 7.4, 25 °C
# Method: All MEKC experiments were carried out with a P/ACE MDQ plus system (Sciex, Framingham, MA, USA) equipped with photodiode array detector (PDA) and controlled by 32 Karat software (version 10.2). The uncoated fused silica capillaries (50 µm i.d., Polymicro Technologies, West Yorkshire, UK) of 60 cm total length and 50.2 cm effective length were used. Prior to analysis, the capillary was rinsed with 0.1 M NaOH for 30 min, ultrapure water for 10 min, and background electrolyte (BGE) for 30 min. After each analysis, the capillary was conditioned with BGE for 2 min. The applied pressure for all rinsing operations was 345 kPa. The analytes were dissolved in BGE at concentration of 100 µg/mL with addition of quinine (micelles marker). As electroosmotic flow (EOF) marker, DMSO was used. The samples were hydrodynamically injected at 35 kPa for 5 s. The separations were performed by applying voltage of 20 kV with positive polarity and constant temperatures at 25 ± 0.1 °C. The BGE consisted of aqueous solution of 50 mM SDS and 120 mM HEPES /100 mM TRIS buffer of pH 7.4. The BGE was prepared each working day by dilution of stock solution. Detection was carried out at 200 and 280 nm with 8 Hz probing frequency. The logarithm of retention factor logk was calculated according to the equation introduced by Terabe and co-workers:(10) logkMEKC=log(tR−tEOF/tEOF(1−tR/tMC)) The established logk parameters are summarized in Table 2.
Compound,C 0 [1],PC1 [1],mRM [1],R M ^0 [1],b [1],C 0 [2],PC1 [2],mRM [2],R M ^0 [2],b [2],logk [3],logk ([3]; listed as enoxacin)
"CCn1cc(C(=O)O)c(=O)c2cc(F)c(N3CCNCC3)cc21 [Compound 18, reference compound]",1.24,−2.34,1.40,2.54,−2.06,1.27,−5.56,1.47,2.43,−1.90,0.103,–
CCn1cc(C(=O)O)c(=O)c2cc(F)c(N3CC[N+]4(CN5C(=N4)C(C(=O)O)=Cc4ccccc45)C(C)C3)c(F)c21.[Cl-] (stereo not drawn) [Compound 5],0.93,0.88,0.94,2.29,−2.45,1.04,−1.69,0.98,1.90,−1.83,−0.265,–
CCn1cc(C(=O)O)c(=O)c2cc(F)c(N3CC[N+]4(CC3)CN3C(C)=CC(C)=C(C(=O)O)C3=N4)nc21.[Cl-] [Compound 11],1.08,1.51,0.84,1.72,−1.59,1.06,−0.54,0.84,1.59,−1.50,−0.398,–
O=C(O)C1=Cc2ccccc2N2C[N+]3(CCN(c4cc5c(cc4F)c(=O)c(C(=O)O)cn5C4CC4)CC3)N=C12.[Cl-] [Compound 8],1.07,1.18,0.89,1.83,−1.71,1.09,−1.26,0.93,1.71,−1.56,−0.153,–
"CCn1cc(C(=O)O)c(=O)c2cc(F)c(N3CCNCC3)nc21 [Compound 23, enoxacin, reference compound]",1.37,−3.86,1.62,2.70,−1.98,1.23,−5.38,1.45,2.45,−2.00,0.156,0.1564
"COc1c(N2CCNC(C)C2)c(F)cc2c(=O)c(C(=O)O)cn(C3CC3)c12 (stereo not drawn) [Compound 21, reference compound]",1.06,−1.63,1.31,2.69,−2.55,0.95,−4.29,1.26,2.68,−2.83,0.101,–
CC1CN(c2c(F)c(N)c3c(=O)c(C(=O)O)cn(C4CC4)c3c2F)CC(C)[N+]12CN1C(=N2)C(C(=O)O)=Cc2ccccc21.[Cl-] (stereo not drawn) [Compound 3],0.88,0.34,1.02,2.75,−3.13,0.86,−3.48,1.15,2.74,−3.17,−0.070,–
